In brackets after ≈: the same amount, converted by molar mass.
What was measured:
Assay type in all cases: cell-based
[1] = tested on: E. coli mdtK knockout strain; test: MIC, efflux pump knockout mdtK; conditions: Escherichia coli, read-out: MIC mdtK
Protocol: (§1) The inoculum used for all the experiments is derived from a single seed lot that is maintained as glycerol stocks at −80 °C and are sub cultured on LB plate for isolated colonies. Single colony of each strain is grown in M9 medium. All test compound stocks and dilutions are prepared in DMSO. Serial two-fold dilutions of compounds are prepared separately, with the concentrations ranging from 2 mg/mL to 0.015 mg/mL. To 150 µl (3–7 × 10^5 CFU/ml) of bacterial culture in 96 well microtitre plates, 3 μL compound from each of the dilutions is added to respective wells to obtain final concentrations ranging from 40 µg/mL to 0.3 µg/mL of the test compounds. Media control, culture control and appropriate reference drug controls are included. […] Growth is monitored by checking absorbance at 600 nm (A600). […] The samples from MIC and above concentrations are plated for MBC (Minimum Bactericidal Concentration). The samples are diluted 1:10 and plated on LB agar plates. […] The killing kinetics is determined by enumerating survivors at various time points following compound exposure. E. coli cells (~10^7 CFU/ml; A600 of 0.1) are treated with various concentrations (40 µg/mL to 0.3 µg/mL) of compounds in a 96-well microtitre plate. […] Data is expressed as the log10 CFU for each drug treatment.

E. coli ∆acrB JW0451-2 = test: MIC, E. coli ∆acrB; conditions: Escherichia coli, read-out: MIC acrB
Protocol: as §1, with “plate. At various time intervals (0 to 8 h), 30 μl volumes of treated cultures are serially diluted and plated on LB agar plates.” for “plate.”

[2] = tested on: E. coli emrB knockout strain; test: MIC, efflux pump knockout emrB; conditions: Escherichia coli, read-out: MIC emrB
Protocol: as §1

[3] = tested on: E. coli mdfA knockout strain; test: MIC, efflux pump knockout mdfA; conditions: Escherichia coli, read-out: MIC mdfA
Protocol: as §1

[4] = tested on: E. coli acrF knockout strain; test: MIC, efflux pump knockout acrF; conditions: Escherichia coli, read-out: MIC acrF
Protocol: as §1

[5] = tested on: E. coli bcr knockout strain; test: MIC, efflux pump knockout bcr; conditions: Escherichia coli, read-out: MIC bcr
Protocol: as §1

[6] = tested on: E. coli yciM knockout strain; test: MIC, efflux pump knockout yciM; conditions: Escherichia coli, read-out: MIC yciM
Protocol: as §1

[7] = tested on: E. coli emrE knockout strain; test: MIC, efflux pump knockout emrE; conditions: Escherichia coli, read-out: MIC emrE
Protocol: as §1

[8] = tested on: E. coli macB knockout strain; test: MIC, efflux pump knockout macB; conditions: Escherichia coli, read-out: MIC macB
Protocol: as §1

[9] = tested on: E. coli acrD knockout strain; test: MIC, efflux pump knockout acrD; conditions: Escherichia coli, read-out: MIC acrD
Protocol: as §1

[10] = tested on: wild-type E. coli CGSC#7636 (BW25113); test: MIC, wild-type E. coli; conditions: Escherichia coli, BW25113, E. coli WT BW25113; read-out: MIC WT
Protocol: as §1, with “plate. At various time intervals (0 to 8 h), 30 μl volumes of treated cultures are serially diluted and plated on LB agar plates.” for “plate.”

E. coli ∆tolC JW5503-1 = test: MIC, E. coli ∆tolC; conditions: Escherichia coli, read-out: MIC tolC
Protocol: as §1, with “plate. At various time intervals (0 to 8 h), 30 μl volumes of treated cultures are serially diluted and plated on LB agar plates.” for “plate.”

[11] = tested on: E. coli hsrA knockout strain; test: MIC, efflux pump knockout hsrA; conditions: Escherichia coli, read-out: MIC hsrA
Protocol: as §1

[12] = tested on: E. coli mdtB knockout strain; test: MIC, efflux pump knockout mdtB; conditions: Escherichia coli, read-out: MIC mdtB
Protocol: as §1

[13] = tested on: E. coli mdtL knockout strain; test: MIC, efflux pump knockout mdtL; conditions: Escherichia coli, read-out: MIC mdtL
Protocol: as §1

[14] = tested on: E. coli acrZ knockout strain; test: MIC, efflux pump knockout acrZ; conditions: Escherichia coli, read-out: MIC acrZ
Protocol: as §1

[15] = tested on: E. coli emrY knockout strain; test: MIC, efflux pump knockout emrY; conditions: Escherichia coli, read-out: MIC emrY
Protocol: as §1

[16] = tested on: E. coli mdtG knockout strain; test: MIC, efflux pump knockout mdtG; conditions: Escherichia coli, read-out: MIC mdtG
Protocol: as §1

Question: Which results are given for `CN(C)[C@@H]1C(O)=C(C(N)=O)C(=O)[C@@]2(O)C(O)=C3C(=O)c4c(O)cccc4[C@@](C)(O)[C@H]3C[C@@H]12` [tetracycline, reference compound]?
Answer: MIC [1]: 1.2 µg/mL (≈ 2.7 µM); MIC (E. coli ∆acrB JW0451-2): 0.3 µg/mL (≈ 0.675 µM); MIC [2]: 1.2 µg/mL (≈ 2.7 µM); MIC [3]: 1.2 µg/mL (≈ 2.7 µM); MIC [4]: 1.2 µg/mL (≈ 2.7 µM); MIC [5]: 1.2 µg/mL (≈ 2.7 µM); MIC [6]: 1.2 µg/mL (≈ 2.7 µM); MIC [7]: 1.2 µg/mL (≈ 2.7 µM); MIC [8]: 1.2 µg/mL (≈ 2.7 µM); MIC [9]: 1.2 µg/mL (≈ 2.7 µM); MIC [10]: 1.2 µg/mL (≈ 2.7 µM); MIC (E. coli ∆tolC JW5503-1): 0.3 µg/mL (≈ 0.675 µM); MIC [11]: 1.2 µg/mL (≈ 2.7 µM); MIC [12]: 1.2 µg/mL (≈ 2.7 µM); MIC [13]: 1.2 µg/mL (≈ 2.7 µM); MIC [14]: 1.2 µg/mL (≈ 2.7 µM); MIC [15]: 1.2 µg/mL (≈ 2.7 µM); MIC [16]: 1.2 µg/mL (≈ 2.7 µM)
